# Assay results published in patent US9833497B2, “Human originated EGF domain proteins and use of the same” (CHENGDU SOURCEBIO LIMITED-LIABILITY COMPANY, priority 2013, dated 2017).
# Columns and labels:
# Type in all cases: cell-based
# Proteus mirabilis = assay: MIC against Gram-negative bacteria: Proteus mirabilis; conditions: 5×10^5 CFU/mL
# In short: (§1)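 The recombinant human-originated EGF domain proteins were serially diluted two-fold against bacteria at 5×10^5 CFU/mL in LB medium. After shaken incubation at 37° C, the lowest concentration with no bacterial growth was recorded as the MIC.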
# E. coli DH5α = assay: Antibacterial activity: MIC and growth curve against E. coli DH5α in 96-well plate; conditions: minimal inhibitory concentration against E. coli DH5α; 96-well plate, 5×10^5 CFU/mL, 37° C., judged after 8 h
# In short: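 Log-phase bacteria (OD600 ~0.5) resuspended in LB at 5×10^5 CFU/mL, exposed to recombinant protein at 50, 25, 12.5 μg/mL final in triplicate, 37 °C shaking at 175 rpm. OD600 read every 30 min; MIC is lowest concentration showing no growth.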
# Proteus vulgaris = assay: MIC against Gram-negative bacteria: Proteus vulgaris; conditions: 5×10^5 CFU/mL
# In short: as §1
# Citrobacter diversus = assay: MIC against Gram-negative bacteria: Citrobacter diversus; conditions: 5×10^5 CFU/mL
# In short: as §1
# Moraxella catarrhalis = assay: MIC against Gram-negative bacteria: Moraxella catarrhalis; conditions: 5×10^5 CFU/mL
# In short: as §1
# Klebsiella pneumonia = assay: MIC against Gram-negative bacteria: Klebsiella pneumonia; conditions: 5×10^5 CFU/mL
# In short: as §1
# Pseudomonas aeruginosa = assay: MIC against Gram-negative bacteria: Pseudomonas aeruginosa; conditions: 5×10^5 CFU/mL
# In short: as §1
# Aeromonas hydrophila = assay: MIC against Gram-negative bacteria: Aeromonas hydrophila; conditions: 5×10^5 CFU/mL
# In short: as §1
# Serratia marcescens = assay: MIC against Gram-negative bacteria: Serratia marcescens; conditions: 5×10^5 CFU/mL
# In short: as §1
# Enterobacter cloacae = assay: MIC against Gram-negative bacteria: Enterobacter cloacae; conditions: 5×10^5 CFU/mL
# In short: as §1
# E. coli BL21 = assay: MIC against Gram-negative bacteria: E. coli BL21; conditions: 5×10^5 CFU/mL
# In short: as §1
# [1] = Proteus mirabilis, 96-well plate, 37° C., 10 h
# [2] = Proteus vulgaris, 96-well plate, 37° C., 10 h
# [3] = Citrobacter diversus, 96-well plate, 37° C., 10 h
# [4] = Moraxella catarrhalis, 96-well plate, 37° C., 10 h
# [5] = Klebsiella pneumonia, 96-well plate, 37° C., 10 h
# [6] = Pseudomonas aeruginosa, 96-well plate, 37° C., 10 h
# [7] = Aeromonas hydrophila, 96-well plate, 37° C., 10 h
# [8] = Serratia marcescens, 96-well plate, 37° C., 10 h
# [9] = Enterobacter cloacae, 96-well plate, 37° C., 10 h
# [10] = E. coli BL21, 96-well plate, 37° C., 10 h
substance,measurement,setting,value
PRT795 (WGFGCNLTCQCLNGGACNTLDGTCTCAPGWRGEKCE; listed as Homo sapiens),MIC (μg/mL) P. mirabilis,"Proteus mirabilis; P. mirabilis, 10 h cultivation at 37° C.",25 µg/mL
same,MIC,E. coli DH5α,50 µg/mL
same,MIC (μg/mL) P. vulgaris,"Proteus vulgaris; P. vulgaris, 10 h cultivation at 37° C.",25 µg/mL
same,MIC (μg/mL) C. diversus,"Citrobacter diversus; C. diversus, 10 h cultivation at 37° C.",50 µg/mL
same,MIC (μg/mL) M. catarrhalis,"Moraxella catarrhalis; M. catarrhalis, 10 h cultivation at 37° C.",25 µg/mL
same,MIC (μg/mL) K. pneumonia,"Klebsiella pneumonia; K. pneumonia, 10 h cultivation at 37° C.",50 µg/mL
same,MIC (μg/mL) P. aeruginosa,"Pseudomonas aeruginosa; P. aeruginosa, 10 h cultivation at 37° C.",50 µg/mL
same,MIC (μg/mL) A. hydrophila,"Aeromonas hydrophila; A. hydrophila, 10 h cultivation at 37° C.",25 µg/mL
same,MIC (μg/mL) S. marcescens,"Serratia marcescens; S. marcescens, 10 h cultivation at 37° C.",50 µg/mL
same,MIC (μg/mL) E. cloacae,"Enterobacter cloacae; E. cloacae, 10 h cultivation at 37° C.",12.5 µg/mL
same,MIC (μg/mL) E. coli BL21,"E. coli BL21; E. coli BL21, 10 h cultivation at 37° C.",25 µg/mL
PRT1312 (LQPVCTPPCAPEAVCRAGNSCECSLGYEGDGRVCT; listed as Homo sapiens),MIC against P. mirabilis,Proteus mirabilis; [1],50 µg/mL
same,MIC,E. coli DH5α,50 µg/mL
same,MIC against P. vulgaris,Proteus vulgaris; [2],12.5 µg/mL
same,MIC against C. diversus,Citrobacter diversus; [3],50 µg/mL
same,MIC against M. catarrhalis,Moraxella catarrhalis; [4],12.5 µg/mL
same,MIC against K. pneumonia,Klebsiella pneumonia; [5],12.5 µg/mL
same,MIC against P. aeruginosa,Pseudomonas aeruginosa; [6],50 µg/mL
same,MIC against A. hydrophila,Aeromonas hydrophila; [7],12.5 µg/mL
same,MIC against S. marcescens,Serratia marcescens; [8],50 µg/mL
same,MIC against E. cloacae,Enterobacter cloacae; [9],50 µg/mL
same,MIC against E. coli BL21,E. coli BL21; [10],12.5 µg/mL
PRT539 (CDCSGNSDPNLIFEDCDEVTGQCRNCLRNTTGFKCERCAPGYYGDARIAKNCAV; listed as Homo sapiens),MIC against P. mirabilis,"Proteus mirabilis; 96-well plate, 37° C., 10 h",50 µg/mL
same,MIC,E. coli DH5α,12.5 µg/mL
same,MIC against P. vulgaris,"Proteus vulgaris; 96-well plate, 37° C., 10 h",12.5 µg/mL
same,MIC against C. diversus,"Citrobacter diversus; 96-well plate, 37° C., 10 h",12.5 µg/mL
same,MIC against M. catarrhalis,"Moraxella catarrhalis; 96-well plate, 37° C., 10 h",25 µg/mL
same,MIC against K. pneumonia,"Klebsiella pneumonia; 96-well plate, 37° C., 10 h",25 µg/mL
same,MIC against P. aeruginosa,"Pseudomonas aeruginosa; 96-well plate, 37° C., 10 h",12.5 µg/mL
same,MIC against A. hydrophila,"Aeromonas hydrophila; 96-well plate, 37° C., 10 h",25 µg/mL
same,MIC against S. marcescens,"Serratia marcescens; 96-well plate, 37° C., 10 h",50 µg/mL
same,MIC against E. cloacae,"Enterobacter cloacae; 96-well plate, 37° C., 10 h",50 µg/mL
same,MIC against E. coli BL21,"E. coli BL21; 96-well plate, 37° C., 10 h",50 µg/mL
PRT720 (INECHDPSISGCDHNCTDTLTSFYCSCRPGYKLMSDKRTCV; listed as Homo sapiens),MIC P. mirabilis,"Proteus mirabilis; 96-well plate, 37° C., 10 h",25 µg/mL
same,MIC,E. coli DH5α,50 µg/mL
same,MIC P. vulgaris,"Proteus vulgaris; 96-well plate, 37° C., 10 h",12.5 µg/mL
same,MIC C. diversus,"Citrobacter diversus; 96-well plate, 37° C., 10 h",25 µg/mL
same,MIC M. catarrhalis,"Moraxella catarrhalis; 96-well plate, 37° C., 10 h",50 µg/mL
same,MIC K. pneumonia,"Klebsiella pneumonia; 96-well plate, 37° C., 10 h",12.5 µg/mL
same,MIC P. aeruginosa,"Pseudomonas aeruginosa; 96-well plate, 37° C., 10 h",12.5 µg/mL
same,MIC A. hydrophila,"Aeromonas hydrophila; 96-well plate, 37° C., 10 h",12.5 µg/mL
same,MIC S. marcescens,"Serratia marcescens; 96-well plate, 37° C., 10 h",50 µg/mL
same,MIC E. cloacae,"Enterobacter cloacae; 96-well plate, 37° C., 10 h",50 µg/mL
same,MIC E. coli BL21,"E. coli BL21; 96-well plate, 37° C., 10 h",25 µg/mL
PRT1336 (DCNQCPGGFSNPCSGNGQCADSLGGNGTCICEEGFQGSQCQ; listed as Homo sapiens),MIC against P. mirabilis,Proteus mirabilis; [1],50 µg/mL
same,MIC,E. coli DH5α,12.5 µg/mL
same,MIC against P. vulgaris,Proteus vulgaris; [2],12.5 µg/mL
same,MIC against C. diversus,Citrobacter diversus; [3],50 µg/mL
same,MIC against M. catarrhalis,Moraxella catarrhalis; [4],12.5 µg/mL
same,MIC against K. pneumonia,Klebsiella pneumonia; [5],50 µg/mL
same,MIC against P. aeruginosa,Pseudomonas aeruginosa; [6],12.5 µg/mL
same,MIC against A. hydrophila,Aeromonas hydrophila; [7],12.5 µg/mL
same,MIC against S. marcescens,Serratia marcescens; [8],50 µg/mL
same,MIC against E. cloacae,Enterobacter cloacae; [9],25 µg/mL
same,MIC against E. coli BL21,E. coli BL21; [10],50 µg/mL
PRT1267 (CNHGNGGCQHSCDDTADGPECSCHPQYKMHTDGRSC; listed as Homo sapiens),MIC against P. mirabilis,Proteus mirabilis; [1],50 µg/mL
same,MIC,E. coli DH5α,12.5 µg/mL
same,MIC against P. vulgaris,Proteus vulgaris; [2],25 µg/mL
same,MIC against C. diversus,Citrobacter diversus; [3],12.5 µg/mL
same,MIC against M. catarrhalis,Moraxella catarrhalis; [4],25 µg/mL
same,MIC against K. pneumonia,Klebsiella pneumonia; [5],25 µg/mL
same,MIC against P. aeruginosa,Pseudomonas aeruginosa; [6],50 µg/mL
same,MIC against A. hydrophila,Aeromonas hydrophila; [7],50 µg/mL
same,MIC against S. marcescens,Serratia marcescens; [8],12.5 µg/mL
same,MIC against E. cloacae,Enterobacter cloacae; [9],12.5 µg/mL
same,MIC against E. coli BL21,E. coli BL21; [10],25 µg/mL
PRT131 (AGHCSTYGHLCRNGGRCREKRRGVTCDCAFSAYDGPFCS; listed as Homo sapiens),MIC (μg/mL) P. mirabilis,Proteus mirabilis; [1],100 µg/mL
same,MIC,E. coli DH5α,50 µg/mL
same,MIC (μg/mL) P. vulgaris,Proteus vulgaris; [2],25 µg/mL
same,MIC (μg/mL) C. diversus,Citrobacter diversus; [3],12.5 µg/mL
same,MIC (μg/mL) M. catarrhalis,Moraxella catarrhalis; [4],25 µg/mL
same,MIC (μg/mL) K. pneumonia,Klebsiella pneumonia; [5],12.5 µg/mL
same,MIC (μg/mL) P. aeruginosa,Pseudomonas aeruginosa; [6],12.5 µg/mL
same,MIC (μg/mL) A. hydrophila,Aeromonas hydrophila; [7],12.5 µg/mL
same,MIC (μg/mL) S. marcescens,Serratia marcescens; [8],12.5 µg/mL
same,MIC (μg/mL) E. cloacae,Enterobacter cloacae; [9],12.5 µg/mL
same,MIC (μg/mL) E. coli BL21,E. coli BL21; [10],12.5 µg/mL
